Test results taken from ChEMBL document CHEMBL1132889, “Synthesis and evaluation of 9,9-dimethylxanthene tricyclics against trypanothione reductase, Trypanosoma brucei, Trypanosoma cruzi and Leishmania donovani” (2000).
In brackets after ≈: the same amount, converted by molar mass.

Tests used:
[1] = Cytotoxicity against peritoneal macrophages of female CD1 mice culturing amastigote stages of Leishmania donovani; type: functional; conditions: Mus musculus
Trypanosoma brucei [2] = assay: The compound was evaluated in vitro for its inhibitory affect against Trypanosoma brucei; (0.02 mM Sb); type: functional; conditions: read-out: ED50 (the source's name)
Leishmania donovani [3] = assay: The compound was evaluated in vitro for its inhibitory affect against Leishmania donovani; (0.55 mM Sb); type: functional; conditions: read-out: ED50 (the source's name)
[4] = target: Trypanothione reductase (Trypanosoma cruzi) (UniProt P28593); assay: The compound was evaluated in vitro for its inhibitory affect against trypanothione reductase; design: concentration or dose not given beside the values; conditions: concentration not given here
Trypanosoma cruzi [5] = assay: The compound was evaluated in vitro for its inhibitory affect against Trypanosoma cruzi; (0.48 mM Sb); type: functional; conditions: read-out: ED50 (the source's name)
[6] = Cytotoxicity against peritoneal macrophages of female CD1 mice culturing amastigote stages of Trypanosoma cruzi; type: functional; conditions: Mus musculus
Trypanosoma cruzi [7] = assay: The compound was evaluated in vitro for its inhibitory affect against Trypanosoma cruzi; type: functional; conditions: read-out: ED50 (the source's name)
Trypanosoma brucei [8] = assay: The compound was evaluated in vitro for its inhibitory affect against Trypanosoma brucei; (9.66 mM Sb); type: functional; conditions: read-out: ED50 (the source's name)
Leishmania donovani [9] = assay: The compound was evaluated in vitro for its inhibitory affect against Leishmania donovani; type: functional; conditions: read-out: ED50 (the source's name)
Trypanosoma brucei [10] = assay: The compound was evaluated in vitro for its inhibitory affect against Trypanosoma brucei; (8.24 mM Sb); type: functional; conditions: read-out: ED50 (the source's name)
Leishmania donovani [11] = assay: The compound was evaluated in vitro for its inhibitory affect against Leishmania donovani; (32.6 mM Sb); type: functional; conditions: read-out: ED50 (the source's name)
Trypanosoma cruzi [12] = assay: In vitro inhibitory affect against Trypanosoma cruzi; (32.7 mM Sb); type: functional; conditions: read-out: ED50 (the source's name)
Trypanosoma brucei [13] = assay: The compound was evaluated in vitro for its inhibitory affect against Trypanosoma brucei; (0.098 mM Sb); type: functional; conditions: read-out: ED50 (the source's name)
Trypanosoma brucei [14] = assay: The compound was evaluated in vitro for its inhibitory affect against Trypanosoma brucei; (7.58 mM Sb); type: functional; conditions: read-out: ED50 (the source's name)
Trypanosoma brucei [15] = assay: The compound was evaluated in vitro for its inhibitory affect against Trypanosoma brucei; (0.03 mM Sb); type: functional; conditions: read-out: ED50 (the source's name)
Trypanosoma brucei [16] = assay: The compound was evaluated in vitro for its inhibitory affect against Trypanosoma brucei; (0.14 mM Sb); type: functional; conditions: read-out: ED50 (the source's name)

Trypanothione reductase (Trypanosoma cruzi), sequence (P28593 whole entry, looked up): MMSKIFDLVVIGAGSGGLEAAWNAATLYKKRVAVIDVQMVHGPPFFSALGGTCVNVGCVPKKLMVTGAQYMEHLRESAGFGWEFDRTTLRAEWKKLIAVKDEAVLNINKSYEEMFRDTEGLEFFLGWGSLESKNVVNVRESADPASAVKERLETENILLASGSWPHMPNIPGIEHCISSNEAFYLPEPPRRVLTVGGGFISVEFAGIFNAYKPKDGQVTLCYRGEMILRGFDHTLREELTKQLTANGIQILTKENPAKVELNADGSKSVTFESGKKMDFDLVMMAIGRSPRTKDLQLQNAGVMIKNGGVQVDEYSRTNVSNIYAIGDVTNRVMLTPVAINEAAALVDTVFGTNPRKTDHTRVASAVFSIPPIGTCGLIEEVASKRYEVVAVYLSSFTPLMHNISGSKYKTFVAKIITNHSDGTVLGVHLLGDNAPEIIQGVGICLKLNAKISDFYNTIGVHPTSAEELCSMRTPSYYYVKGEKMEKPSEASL

Compound | inhibition [4] | EC50 (Trypanosoma cruzi [7]) | EC50 (Leishmania donovani [9]) | MIC [1] | MIC [6] | further results
CN(C)CCCNC(=O)c1cc(C(C)(C)C)cc2c1Oc1c(C(=O)NCCCN(C)C)cc(C(C)(C)C)cc1C2(C)C | 28.4% |  |  | > 30 µg/mL | > 30 µg/mL | EC50 (Trypanosoma brucei [2]): 0.01 µg/mL (≈ 0.0173 µM); EC50 (Leishmania donovani [3]): 0.32 µg/mL (≈ 0.553 µM); EC50 (Trypanosoma cruzi [5]): 0.28 µg/mL (≈ 0.484 µM)
O=C(Cn1ccnc1[N+](=O)[O-])NCc1ccccc1 [BENZNIDAZOLE] |  |  |  |  |  | EC50 (Trypanosoma cruzi [12]): 8.5 µg/mL (≈ 32.7 µM)
CN(C)CCC/N=C(\S)NCCCc1cccc2c1Oc1c(CCCN/C(S)=N/CCCN(C)C)cccc1C2(C)C | 52% | > 30 µg/mL | > 30 µg/mL | > 30 µg/mL | > 30 µg/mL | EC50 (Trypanosoma brucei [13]): 0.06 µg/mL (≈ 0.0979 µM)
N=C(N)c1ccc(OCCCCCOc2ccc(C(=N)N)cc2)cc1 [PENTAMIDINE] |  |  |  |  |  | EC50 (Trypanosoma brucei [15]): 0.01 µg/mL (≈ 0.0294 µM)
CN(C)CCCNCCCc1cccc2c1Oc1c(CCCNCCCN(C)C)cccc1C2(C)C | 63% | > 30 µg/mL | > 30 µg/mL | > 30 µg/mL | > 30 µg/mL | EC50 (Trypanosoma brucei [16]): 0.07 µg/mL (≈ 0.141 µM)

Now from value to compound, other results behind:

inhibition [4] | EC50 (Trypanosoma cruzi [7]) | EC50 (Leishmania donovani [9]) | Compound | MIC [1] | MIC [6] | further results
40% | > 30 µg/mL | > 30 µg/mL | CN(C)CCCNC(=O)c1cccc2c1Oc1c(C(=O)NCCCN(C)C)cccc1C2(C)C | > 300 µg/mL | > 300 µg/mL | EC50 (Trypanosoma brucei [8]): 4.5 µg/mL (≈ 9.64 µM)
58% | > 30 µg/mL |  | CN(C)CCCNC(=O)CCc1cccc2c1Oc1c(CCC(=O)NCCCN(C)C)cccc1C2(C)C | > 300 µg/mL | > 300 µg/mL | EC50 (Trypanosoma brucei [10]): 4.3 µg/mL (≈ 8.23 µM); EC50 (Leishmania donovani [11]): 17 µg/mL (≈ 32.6 µM)
13.8% | > 30 µg/mL | > 30 µg/mL | CN(C)CCCNCc1cccc2c1Oc1c(CNCCCN(C)C)cccc1C2(C)C | > 300 µg/mL | > 300 µg/mL | EC50 (Trypanosoma brucei [14]): 3.32 µg/mL (≈ 7.57 µM)
